The subject of this test is BDF1 mice, colon carcinoma 38 sc, T/C %. As to the kind of experiment: NCI In Vivo Anticancer Drug Screen. Data for tumor model Colon Carcinoma 38 (subcutaneous) in B6D2F1 (BDF1) mice. Particulars: endpoint: median tumor weight (est.), higher = larger tumour. The essentials: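 Ratio of survival or tumor size, compound-treated animals relative to vehicle controls, in tumor-bearing mice.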

Where [1] appears, read: dose: 100.0 mg/kg/injection, schedule: Q07DX003 (ip), vehicle: saline.
Where [2] appears, read: dose: 25.0 mg/kg/injection, schedule: Q07DX002 (ip), vehicle: saline.
The mark [3] stands for this setting: dose: 50.0 mg/kg/injection, schedule: Q07DX002 (ip), vehicle: saline.
The mark [4] stands for this setting: dose: 100.0 mg/kg/injection, schedule: Q07DX002 (ip), vehicle: saline.
[5] abbreviates: dose: 25.0 mg/kg/injection, schedule: Q07DX002 (ip), vehicle: saline with Tween-80.
The mark [6] stands for this setting: dose: 50.0 mg/kg/injection, schedule: Q07DX002 (ip), vehicle: saline with Tween-80.
The mark [7] stands for this setting: dose: 100.0 mg/kg/injection, schedule: Q07DX002 (ip), vehicle: saline with Tween-80.
The mark [8] stands for this setting: dose: 25.0 mg/kg/injection, schedule: Q07DX002 (ip), vehicle: Klucel (hydroxypropylcellulose) (HPC).
Where [9] appears, read: dose: 100.0 mg/kg/injection, schedule: Q07DX002 (ip), vehicle: Klucel (hydroxypropylcellulose) (HPC).
[10] abbreviates: dose: 200.0 mg/kg/injection, schedule: Q07DX002 (ip), vehicle: Klucel (hydroxypropylcellulose) (HPC).
Setting [11] is: dose: 12.5 mg/kg/injection, schedule: Q07DX002 (ip), vehicle: saline with Tween-80.
The mark [12] stands for this setting: dose: 12.5 mg/kg/injection, schedule: Q07DX002 (ip), vehicle: Klucel (hydroxypropylcellulose) (HPC).

This passage reports T/C results from PubChem BioAssay AID212 (DTP/NCI, 2004).

Values joined by “and” are separate entries in the source; they are usually repeats but may differ in a detail not shown here. Equal values may be shown once. Records with an inconclusive call do not appear.

On to `CCC(c1ccc(OC(=O)Cc2ccc(N(CCCl)CCCl)cc2)cc1)C(CC)c1ccc(OC(=O)Cc2ccc(N(CCCl)CCCl)cc2)cc1` (centres undefined), for which the T/C is, setting by setting: (dose: 9.38 mg/kg/injection, schedule: Q07DX002 (ip), vehicle: saline with Tween-80) 120 % of control; (dose: 18.7 mg/kg/injection, schedule: Q07DX002 (ip), vehicle: saline with Tween-80) 92 % of control; (dose: 37.5 mg/kg/injection, schedule: Q07DX002 (ip), vehicle: saline with Tween-80) 33 % of control; (dose: 75.0 mg/kg/injection, schedule: Q07DX002 (ip), vehicle: saline with Tween-80) 46 % of control; (dose: 300.0 mg/kg/injection, schedule: Q07DX002 (ip), vehicle: saline with Tween-80) 51 % of control and 61 % of control; (dose: 600.0 mg/kg/injection, schedule: Q07DX002 (ip), vehicle: saline with Tween-80) 51 % of control and 61 % of control.
Turning to `COc1ccc(C(=O)/C(Br)=C/C(=O)O)cc1`, the T/C runs as follows: (dose: 4.0 mg/kg/injection, schedule: Q07DX002 (ip), vehicle: saline) 104 % of control; (dose: 8.0 mg/kg/injection, schedule: Q07DX002 (ip), vehicle: saline) 98 % of control; (dose: 16.0 mg/kg/injection, schedule: Q07DX002 (ip), vehicle: saline) 104 % of control; (dose: 32.0 mg/kg/injection, schedule: Q07DX002 (ip), vehicle: saline) 71 % of control.
Consider `N=C(N)Sc1ccccn1`, for which the T/C reads like this: under setting [1], 94 % of control; (dose: 200.0 mg/kg/injection, schedule: Q07DX003 (ip), vehicle: saline) 81 % of control; (dose: 400.0 mg/kg/injection, schedule: Q07DX003 (ip), vehicle: saline) 88 % of control and 108 % of control.
On to `C=C1C(O)C2(O)OCC34C(CC5C(C)=CC(=O)C(O)C5(C)C23)OC(=O)C(OC(=O)C(C)(O)CC)C14` (centres undefined), for which the T/C by setting is: (dose: 0.12 mg/kg/injection, schedule: Q07DX002 (ip), vehicle: saline + alcohol) 93 % of control; (dose: 0.25 mg/kg/injection, schedule: Q07DX002 (ip), vehicle: saline + alcohol) 71 % of control; (dose: 0.5 mg/kg/injection, schedule: Q07DX002 (ip), vehicle: saline + alcohol) 93 % of control; (dose: 1.0 mg/kg/injection, schedule: Q07DX002 (ip), vehicle: saline + alcohol) 52 % of control; (dose: 2.0 mg/kg/injection, schedule: Q07DX002 (ip), vehicle: saline + alcohol) 57 % of control.
Consider `OCCN1CCN(CC/C=C2/c3ccccc3Sc3ccc(Cl)cc32)CC1`, for which the T/C is 83 % of control (dose: 3.12 mg/kg/injection, schedule: Q07DX002 (ip), vehicle: saline); 39 % of control (dose: 6.25 mg/kg/injection, schedule: Q07DX002 (ip), vehicle: saline); 112 % of control (dose: 12.5 mg/kg/injection, schedule: Q07DX002 (ip), vehicle: saline); 67 % of control under setting [2]; 110 % of control under setting [3]; 99 % of control under setting [4].
In the case of `COc1cc(C(=O)N/N=C/c2cccc([N+](=O)[O-])c2)cc(OC)c1OC`, the T/C was 93 % of control under setting [5]; 124 % of control under setting [6]; 107 % of control under setting [7]; 101 % of control (dose: 200.0 mg/kg/injection, schedule: Q07DX002 (ip), vehicle: saline with Tween-80).
As to `CC(=O)NC(CCc1ccc(Cl)c(Cl)c1)c1cccc(O)c(=O)c1` (centres undefined), the T/C is 161 % of control under setting [8], 109 % of control under setting [9] and 122 % of control under setting [10].
As to `OCC1OC(n2cnc3cc(Cl)c(Cl)cc32)C(O)C1O` (centres undefined), the T/C reads like this: under setting [11], 101 % of control; under setting [5], 98 % of control; under setting [6], 105 % of control; under setting [7], 98 % of control.
Turning to `O=C(Nc1ccc(C2=NCCN2)cc1)c1ccc(C(=O)Nc2ccc(C3=NCCN3)cc2)c(Cl)c1`, the T/C is, setting by setting: (dose: 6.25 mg/kg/injection, schedule: Q07DX002 (ip), vehicle: saline with Tween-80) 117 % of control; under setting [11], 117 % of control; under setting [6], 118 % of control.
For the molecule `ClCCCCCCCCCCc1ccccc1`, the T/C by setting is: under setting [12], 83 % of control; (dose: 12.5 mg/kg/injection, schedule: Q07DX003 (ip), vehicle: Klucel (hydroxypropylcellulose) (HPC)) 77 % of control; under setting [8], 83 % of control; (dose: 25.0 mg/kg/injection, schedule: Q07DX003 (ip), vehicle: Klucel (hydroxypropylcellulose) (HPC)) 95 % of control; (dose: 50.0 mg/kg/injection, schedule: Q07DX003 (ip), vehicle: Klucel (hydroxypropylcellulose) (HPC)) 63 % of control; under setting [9], 67 % of control. The T/C (dose: 100.0 mg/kg/injection, schedule: Q07DX003 (ip), vehicle: Klucel (hydroxypropylcellulose) (HPC)) was 65 % of control; the T/C under setting [10] is 80 % of control; the T/C (dose: 200.0 mg/kg/injection, schedule: Q07DX003 (ip), vehicle: Klucel (hydroxypropylcellulose) (HPC)) was 90 % of control; the T/C (dose: 400.0 mg/kg/injection, schedule: Q07DX002 (ip), vehicle: Klucel (hydroxypropylcellulose) (HPC)) is 88 % of control; the T/C (dose: 400.0 mg/kg/injection, schedule: Q07DX003 (ip), vehicle: Klucel (hydroxypropylcellulose) (HPC)) is 51 % of control.
With `CC(/C=N/N=C(N)N)=N\N=C(N)N`, the T/C is 66 % of control (dose: 6.25 mg/kg/injection, schedule: Q07DX003 (ip), vehicle: saline); 66 % of control (dose: 12.5 mg/kg/injection, schedule: Q07DX003 (ip), vehicle: saline); 79 % of control (dose: 25.0 mg/kg/injection, schedule: Q07DX003 (ip), vehicle: saline); 115 % of control under setting [1].
For the molecule `C1CN1c1nc(N2CC2)nc(N2CC2)n1`, the T/C is 30 % of control (dose: 0.25 mg/kg/injection, schedule: Q07DX003 (ip), vehicle: saline); 43 % of control (dose: 0.5 mg/kg/injection, schedule: Q07DX003 (ip), vehicle: saline); 36 % of control (dose: 1.0 mg/kg/injection, schedule: Q07DX003 (ip), vehicle: saline).
`c1ccc2c(c1)nnn1c3cnccc3nc21`: the T/C is 63 % of control and 88 % of control (dose: 3.12 mg/kg/injection, schedule: Q07DX002 (ip), vehicle: saline with Tween-80); 82 % of control and 85 % of control under setting [5].
As for `NC1=NC(=O)N2CC12` (centres undefined), the T/C is 81 % of control under setting [2]; 82 % of control and 83 % of control under setting [3]; 81 % of control and 104 % of control under setting [4]; 66 % of control and 70 % of control (dose: 200.0 mg/kg/injection, schedule: Q07DX002 (ip), vehicle: saline); 79 % of control (dose: 400.0 mg/kg/injection, schedule: Q07DX002 (ip), vehicle: saline).
In the case of `C=Cc1cnc([N+](=O)[O-])n1C`, the T/C reads like this: under setting [12], 67 % of control and 84 % of control; under setting [8], 109 % of control and 97 % of control; (dose: 50.0 mg/kg/injection, schedule: Q07DX002 (ip), vehicle: Klucel (hydroxypropylcellulose) (HPC)) 62 % of control and 69 % of control.
For `COc1ccc(-c2cc(=O)c3cccc(CC(=O)O)c3o2)cc1OC`, the T/C is 106 % of control under setting [8], 117 % of control under setting [9] and 82 % of control under setting [10].
